How the values were obtained:
[1] = system: S. pneumoniae D39V; experiment: Bliss interaction score (quartile over a dose matrix) (fitness difference); higher = more antagonism (negative = synergy)
Outline: (§1)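 Fitness was defined as normalised growth: OD595 at the start of stationary phase divided by the plate's robust no-drug mean and capped at 1. Single-drug fitness was inferred from combination measurements. The Bliss score is observed fitness minus the product of the single-drug values, summarised by quartiles across technical, biological and donor/recipient replicates.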

[2] = system: S. aureus DSM 20231; experiment: as above
Outline: as §1

[3] = system: S. aureus Newman; experiment: as above
Outline: as §1

[4] = system: B. subtilis 168; experiment: as above
Outline: as §1

[5] = system: S. pneumoniae D39V; experiment: fitness (endpoint OD595 vs no drug) (fraction); higher = more growth
Outline: (§2)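 Bacterial fitness was scored as optical density at the stationary-phase transition relative to the robust mean of no-drug control wells. Scores are capped at 1. The growth data were OD595 readings every 30 min for 14 h at 37 °C, background-subtracted against the first reading, from 384-well plates inoculated at OD595 0.01 in TSB, LB Lennox or CY.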

[6] = system: S. aureus DSM 20231; experiment: as above
Outline: as §2

[7] = system: S. aureus Newman; experiment: as above
Outline: as §2

[8] = system: B. subtilis 168; experiment: as above
Outline: as §2
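Wherever Bliss interaction score (quartile over a dose matrix) is given: first quartile when negative (synergy) and third quartile when positive (antagonism).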
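Wherever fitness (endpoint OD595 vs no drug) is given: OD595 on entry to stationary phase over no-drug wells; at most 1.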

C[C@@H]1O[C@@H]1P(=O)(O)O [Fosfomycin] + COc1ccc(C[C@H](N)C(=O)N[C@H]2[C@@H](O)[C@H](n3cnc4c(N(C)C)ncnc43)O[C@@H]2CO)cc1 [Puromycin]
Conditions | Bliss interaction score
[1] | 0.116
[2] | 0.047
[3] | -0.0684
[4] | 0.0393

fitness
Conditions | partner 0.39 µg/mL | partner 0.78 µg/mL | partner 1 µg/mL | partner 1.56 µg/mL | partner 2 µg/mL
[5], first compound 1.25 µg/mL | – | – | 0.974 | – | 0.916
[5], first compound 2.5 µg/mL | – | – | 0.982 | – | 0.89
[5], first compound 5 µg/mL | – | – | 0.902 | – | 0.898
[6], first compound 0.781 µg/mL | 0.799 | 0.776 | – | 0.829 | –
[6], first compound 1.562 µg/mL | 0.631 | 0.662 | – | 0.632 | –
[6], first compound 3.124 µg/mL | 0.491 | 0.541 | – | 0.514 | –
[7], first compound 0.781 µg/mL | 0.55 | 0.579 | – | 0.612 | –
[7], first compound 1.562 µg/mL | 0.463 | 0.495 | – | 0.516 | –
[7], first compound 3.124 µg/mL | 0.134 | 0.149 | – | 0.108 | –
[8], first compound 1.562 µg/mL | 0.694 | 0.712 | – | 0.672 | –
[8], first compound 3.124 µg/mL | 0.65 | 0.562 | – | 0.583 | –
[8], first compound 6.248 µg/mL | 0.407 | 0.354 | – | 0.378 | –

fitness, [6], one replicate
Conditions | first compound 0.781 µg/mL | first compound 1.562 µg/mL | first compound 3.124 µg/mL
partner 3.12 µg/mL | 0.828 | 0.733 | 0.611
partner 6.24 µg/mL | 0.707 | 0.488 | 0.329

CO/N=C(\C(=O)N[C@@H]1C(=O)N2C(C(=O)O)=C(COC(C)=O)CS[C@H]12)c1csc(N)n1 [Cefotaxime] + O=C(O[C@@H]1Cc2c(O)cc(O)cc2O[C@@H]1c1cc(O)c(O)c(O)c1)c1cc(O)c(O)c(O)c1 [EGCG]
Conditions | Bliss interaction score
[1] | 0.07
[2] | 0.0466
[3] | 0.0329
[4] | 0.112

fitness
Conditions | partner 6.25 µg/mL | partner 12.5 µg/mL | partner 25 µg/mL | partner 50 µg/mL
[5], first compound 0.0018 µg/mL | – | 0.977 | 0.978 | 0.939
[5], first compound 0.0035 µg/mL | – | 0.989 | ≥ 1 | 0.955
[5], first compound 0.007 µg/mL | – | 0.889 | 0.914 | 0.883
[6], first compound 0.039 µg/mL | – | 0.696 | 0.702 | 0.651
[6], first compound 0.078 µg/mL | – | 0.655 | 0.704 | 0.625
[6], first compound 0.156 µg/mL | – | 0.685 | 0.697 | 0.746
[6], first compound 0.312 µg/mL | – | 0.736 | 0.622 | –
[7], first compound 0.078 µg/mL | – | 0.594 | 0.615 | 0.573
[7], first compound 0.156 µg/mL | – | 0.574 | 0.391 | 0.564
[7], first compound 0.625 µg/mL | – | 0.198 | 0.071 | 0.0397
[7], first compound 1.25 µg/mL | – | 0.0285 | 0.0144 | 0.0286
[7], first compound 2.5 µg/mL | – | 0.0123 | 0.0423 | 0.0268
[8], first compound 0.5 µg/mL | 0.265 | 0.293 | 0.103 | –
[8], first compound 1 µg/mL | 0.119 | 0.166 | 0.0631 | –
[8], first compound 2 µg/mL | 0.0879 | 0.142 | 0.0481 | –

fitness, one replicate
Conditions | first compound 0.00775 µg/mL | first compound 0.0155 µg/mL | first compound 0.031 µg/mL | first compound 0.039 µg/mL | first compound 0.0625 µg/mL | first compound 0.125 µg/mL | first compound 0.25 µg/mL | first compound 0.312 µg/mL
[7], partner 12.5 µg/mL | – | – | – | 0.751 | – | – | – | 0.317
[7], partner 25 µg/mL | – | – | – | 0.786 | – | – | – | 0.268
[7], partner 50 µg/mL | – | – | – | 0.726 | – | – | – | 0.14
[8], partner 6.25 µg/mL | 0.847 | 0.723 | 0.588 | – | 0.532 | 0.462 | 0.403 | –
[8], partner 12.5 µg/mL | 0.466 | 0.341 | 0.284 | – | 0.59 | 0.521 | 0.475 | –
[8], partner 25 µg/mL | 0.192 | 0.129 | 0.133 | – | 0.547 | 0.484 | 0.32 | –

— the supplement of paper PMC10627819
